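Five concentrations, 48 hours, 96-well plates. GI50 is the concentration that inhibits growth by half. TGI is the concentration that stops growth completely.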
How the values were obtained:
Experiment in all cases: inhibition of tumour cell growth, NCI panel, 48 h
HOP-62 NSCLC = tested on: HOP-62 NSCLC
M14 melanoma = tested on: M14 melanoma
A498 renal = tested on: A498 renal
SW-620 colon = tested on: SW-620 colon
RXF 393 renal = tested on: RXF 393 renal
MDA-MB-231 breast = tested on: MDA-MB-231 breast
SK-MEL-28 melanoma = tested on: SK-MEL-28 melanoma
DU-145 prostate = tested on: DU-145 prostate
TK-10 renal = tested on: TK-10 renal
NCI-H23 lung = tested on: NCI-H23 lung
SNB-75 CNS = tested on: SNB-75 CNS
SK-MEL-5 melanoma = tested on: SK-MEL-5 melanoma
IGROV1 ovarian = tested on: IGROV1 ovarian
PC-3 prostate = tested on: PC-3 prostate
SR leukemia = tested on: SR leukemia
RPMI-8226 leukemia = tested on: RPMI-8226 leukemia
ACHN renal = tested on: ACHN renal
NCI-H522 lung = tested on: NCI-H522 lung
MOLT-4 leukemia = tested on: MOLT-4 leukemia
K-562 leukemia = tested on: K-562 leukemia
SN12C renal = tested on: SN12C renal
786-0 renal = tested on: 786-0 renal
OVCAR-8 ovarian = tested on: OVCAR-8 ovarian
HCC-2998 colon = tested on: HCC-2998 colon
KM12 colon = tested on: KM12 colon
MALME-3M melanoma = tested on: MALME-3M melanoma
HT29 colon = tested on: HT29 colon
SF-539 CNS = tested on: SF-539 CNS
COLO 205 colon = tested on: COLO 205 colon
UO-31 renal = tested on: UO-31 renal
A549 NSCLC = tested on: A549 NSCLC
EKVX NSCLC = tested on: EKVX NSCLC
SK-OV-3 ovarian = tested on: SK-OV-3 ovarian
HS 578T breast = tested on: HS 578T breast
SF-295 CNS = tested on: SF-295 CNS
SNB-19 CNS = tested on: SNB-19 CNS
T-47D breast = tested on: T-47D breast
CAKI-1 renal = tested on: CAKI-1 renal
CCRF-CEM leukemia = tested on: CCRF-CEM leukemia
SF-268 CNS = tested on: SF-268 CNS
NCI/ADR-RES ovarian = tested on: NCI/ADR-RES ovarian
NCI-H460 lung = tested on: NCI-H460 lung
NCI-H226 lung = tested on: NCI-H226 lung
HCT-116 colon = tested on: HCT-116 colon
LOX IMVI melanoma = tested on: LOX IMVI melanoma
SK-MEL-2 melanoma = tested on: SK-MEL-2 melanoma
HCT-15 colon = tested on: HCT-15 colon
BT-549 breast = tested on: BT-549 breast
OVCAR-4 ovarian = tested on: OVCAR-4 ovarian
OVCAR-5 ovarian = tested on: OVCAR-5 ovarian
UACC-257 melanoma = tested on: UACC-257 melanoma
OVCAR-3 ovarian = tested on: OVCAR-3 ovarian
MDA-MB-435 = tested on: MDA-MB-435
UACC-62 melanoma = tested on: UACC-62 melanoma
MCF7 breast = tested on: MCF7 breast
U251 CNS = tested on: U251 CNS

COc1ccc(OC)c(/C=C(/C)[N+](=O)[O-])c1
GI50 (HOP-62 NSCLC): 2.31 µM
TGI (HOP-62 NSCLC): 4.86 µM
GI50 (M14 melanoma): 2.14 µM
TGI (M14 melanoma): 4.24 µM
GI50 (A498 renal): 8.24 µM
TGI (A498 renal): 20.9 µM
GI50 (SW-620 colon): 1.79 µM
TGI (SW-620 colon): 3.78 µM
GI50 (RXF 393 renal): 1.72 µM
TGI (RXF 393 renal): 3.18 µM
GI50 (MDA-MB-231 breast): 2.71 µM
TGI (MDA-MB-231 breast): 7.45 µM
GI50 (SK-MEL-28 melanoma): 2.22 µM
TGI (SK-MEL-28 melanoma): 4.73 µM
GI50 (DU-145 prostate): 1.64 µM
TGI (DU-145 prostate): 3.16 µM
GI50 (TK-10 renal): 1.96 µM
TGI (TK-10 renal): 3.47 µM
GI50 (NCI-H23 lung): 1.83 µM
TGI (NCI-H23 lung): 4.52 µM
GI50 (SNB-75 CNS): 4.73 µM
TGI (SNB-75 CNS): 16 µM
GI50 (SK-MEL-5 melanoma): 3.47 µM
TGI (SK-MEL-5 melanoma): 13 µM
GI50 (IGROV1 ovarian): 2.97 µM
TGI (IGROV1 ovarian): 8.39 µM
GI50 (PC-3 prostate): 2.4 µM
TGI (PC-3 prostate): 5.63 µM
GI50 (SR leukemia): 0.316 µM
TGI (SR leukemia): > 100 µM
GI50 (RPMI-8226 leukemia): 0.603 µM
TGI (RPMI-8226 leukemia): 3.64 µM
GI50 (ACHN renal): 1.77 µM
TGI (ACHN renal): 3.29 µM
GI50 (NCI-H522 lung): 1.93 µM
TGI (NCI-H522 lung): 3.64 µM
GI50 (MOLT-4 leukemia): 3.32 µM
TGI (MOLT-4 leukemia): > 100 µM
GI50 (K-562 leukemia): 2.57 µM
TGI (K-562 leukemia): > 100 µM
GI50 (SN12C renal): 2.17 µM
TGI (SN12C renal): 5.02 µM
GI50 (786-0 renal): 1.94 µM
TGI (786-0 renal): 3.48 µM
GI50 (OVCAR-8 ovarian): 2.13 µM
TGI (OVCAR-8 ovarian): 4.91 µM
GI50 (HCC-2998 colon): 1.84 µM
TGI (HCC-2998 colon): 3.41 µM
GI50 (KM12 colon): 2.28 µM
TGI (KM12 colon): 5.94 µM
GI50 (MALME-3M melanoma): 1.81 µM
TGI (MALME-3M melanoma): 3.61 µM
GI50 (HT29 colon): 2.56 µM
TGI (HT29 colon): 5.2 µM
GI50 (SF-539 CNS): 2.29 µM
TGI (SF-539 CNS): 5.04 µM
GI50 (COLO 205 colon): 1.92 µM
TGI (COLO 205 colon): 3.63 µM
GI50 (UO-31 renal): 1.42 µM
TGI (UO-31 renal): 2.8 µM
GI50 (A549 NSCLC): 4.54 µM
TGI (A549 NSCLC): 17.5 µM
GI50 (EKVX NSCLC): 2.76 µM
TGI (EKVX NSCLC): 11.5 µM
GI50 (SK-OV-3 ovarian): 6.41 µM
TGI (SK-OV-3 ovarian): 19 µM
GI50 (HS 578T breast): 3.47 µM
TGI (HS 578T breast): 22.9 µM
GI50 (SF-295 CNS): 11.2 µM
TGI (SF-295 CNS): 24.8 µM
GI50 (SNB-19 CNS): 9.52 µM
TGI (SNB-19 CNS): 23.3 µM
GI50 (T-47D breast): 1.16 µM
TGI (T-47D breast): 2.87 µM
GI50 (CAKI-1 renal): 1.29 µM
TGI (CAKI-1 renal): 2.77 µM
GI50 (CCRF-CEM leukemia): 2.66 µM
TGI (CCRF-CEM leukemia): > 100 µM
GI50 (SF-268 CNS): 2.12 µM
TGI (SF-268 CNS): 5.22 µM
GI50 (NCI/ADR-RES ovarian): 3.22 µM
TGI (NCI/ADR-RES ovarian): 11.5 µM
GI50 (NCI-H460 lung): 3.41 µM
TGI (NCI-H460 lung): 12.7 µM
GI50 (NCI-H226 lung): 13.8 µM
TGI (NCI-H226 lung): 27.9 µM
GI50 (HCT-116 colon): 1.88 µM
TGI (HCT-116 colon): 3.54 µM
GI50 (LOX IMVI melanoma): 1.34 µM
TGI (LOX IMVI melanoma): 3.06 µM
GI50 (SK-MEL-2 melanoma): 2.16 µM
TGI (SK-MEL-2 melanoma): 4.41 µM
GI50 (HCT-15 colon): 1.74 µM
TGI (HCT-15 colon): 3.68 µM
GI50 (BT-549 breast): 5.4 µM
TGI (BT-549 breast): 18.5 µM
GI50 (OVCAR-4 ovarian): 1.98 µM
TGI (OVCAR-4 ovarian): 3.5 µM
GI50 (OVCAR-5 ovarian): 3.13 µM
TGI (OVCAR-5 ovarian): 10.7 µM
GI50 (UACC-257 melanoma): 1.69 µM
TGI (UACC-257 melanoma): 3.22 µM
GI50 (OVCAR-3 ovarian): 1.81 µM
TGI (OVCAR-3 ovarian): 3.27 µM
GI50 (MDA-MB-435): 2.29 µM
TGI (MDA-MB-435): 6.8 µM
GI50 (UACC-62 melanoma): 2.06 µM
TGI (UACC-62 melanoma): 4.54 µM
GI50 (MCF7 breast): 0.832 µM
TGI (MCF7 breast): 2.21 µM
GI50 (U251 CNS): 1.68 µM
TGI (U251 CNS): 3.18 µM
